Test [1] deals with T1, E. coli N5-CAIR mutase (Escherichia coli, UniProt P0AG18).
T1 construct: His-tag (inferred from cobalt-resin/imidazole purification); made in house; host or cells: E. coli BL21(DE3), plasmid pJK057 (Addgene)
T1 sequence (P0AG18 1-169): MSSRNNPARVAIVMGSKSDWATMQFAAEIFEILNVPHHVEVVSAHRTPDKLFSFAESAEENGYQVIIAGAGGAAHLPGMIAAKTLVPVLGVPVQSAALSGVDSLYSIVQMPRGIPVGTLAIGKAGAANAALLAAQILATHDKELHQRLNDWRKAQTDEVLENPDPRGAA
The experiment in a line: biochemical. The format is biochemical.

Test [2] has as its system Gallus gallus AIR carboxylase. Nature of the test: Inhibition of AIR carboxylase by NAIR (literature). The test is classed as biochemical.
For another test, the target named is bacterial N5-CAIR mutase. The note with it: bacterial enzyme; cited from earlier work.
For test [3], the target named is T1, E. coli N5-CAIR mutase. Nature of the test: Thermal shift assay (thermal binding assay). The note with it: NAIR 20 μM, eight replicates; enzyme alone 57 ± 0.36°C.
Test [4] addresses Gallus gallus AIR carboxylase. Conditions: cited from earlier work.

What is called Ki is the dissociation constant of the complex between target and ligand, obtained from inhibition or displacement.

In the case of `Cc1nc(-c2ccc(C3CCCN3)nc2)sc1C` (stereo not drawn) [Compound 22], at E. coli N5-CAIR mutase [1], the affinity, expressed as Ki, was 159 µM and the mechanism of inhibition result is on record as “uncompetitive”.
With `CN1CCCC(Cc2cccnc2)C1` (stereo not drawn) [Compound 10], the “inhibition of enzyme activity” value against E. coli N5-CAIR mutase [1] is given as “no inhibition”.
Take `CN1CCCC(c2cnc(-c3ncco3)cn2)C1` (stereo not drawn) [Compound 2]: on E. coli N5-CAIR mutase [1], affinity was put at a Ki of 4.8 µM and the mechanism of inhibition entry is “sigmoidal Michaelis-Menten curve”.
On the same counts, the results for `Cc1cnc(-c2ccc(C3CCCNC3)nc2)s1` (stereo not drawn) [Compound 9] are 83 µM and “competitive”.
Consider `Nc1c([N+](=O)[O-])ncn1[C@@H]1O[C@H](COP(=O)(O)O)[C@@H](O)[C@H]1O` [NAIR, 4-nitro-5-aminoimidazole ribonucleotide], for which, in test [2], the “selectivity for AIR carboxylase over N5-CAIR mutase” value stood at 1000 fold. Further, the Ki at bacterial N5-CAIR mutase is 0.5 µM; in test [4], 0.00034 µM. On E. coli N5-CAIR mutase [3], the “average melting temperature of N5-CAIR mutase with compound bound” value was 75 ± 0.32 °C.
For the compound `Cc1ccc(Nc2nnns2)cc1` [Compound 34, reference compound], the “inhibition of E. coli N5-CAIR mutase” value at E. coli N5-CAIR mutase [1] is on record as “do not show inhibition”.
For the compound `CCc1ccc(C(=O)Nc2nncs2)s1` [Compound 35, reference compound], the “inhibition of E. coli N5-CAIR mutase” value at E. coli N5-CAIR mutase [1] is “do not show inhibition”.
`c1cnc(CC2CCNC2)nc1` (stereo not drawn) [Compound 25]: at E. coli N5-CAIR mutase [1], the Ki is 31 µM and the mechanism of inhibition entry was “non-competitive”.

The values above are taken from article PMC11451730, “A Fragment-Based Screen for Inhibitors of Escherichia coli N5-CAIR Mutase” (Research Square, 2024).
